pIC50: −log10 of the molar value. Where two headings read alike, the source gives them in different places.
Experiments:
A-498 xenografts = assay: A-498 xenograft model, intermittent sunitinib dosing (3 weeks on, 3 weeks off)
SN12C xenografts = assay: SN12C xenograft model, intermittent sunitinib dosing (3 weeks on, 3 weeks off)
RCC cell lines = assay: cells; settings: Homo sapiens
HUVEC and HLMVEC cells = assay: cells; settings: Homo sapiens
[1] = 40 mg/kg, 3-weeks-on and 3-weeks-off
[2] = preliminary studies (data not shown)

CCN(CC)CCNC(=O)c1c(C)[nH]c(/C=C2\C(=O)Nc3ccc(F)cc32)c1C [SU11248, sunitinib]
treated A-498 xenograft mice showing phenotypic resistance (A-498 xenografts; [1]): 38%
treated A-498 xenograft mice showing phenotypic resistance (resistant/treated) (A-498 xenografts; [1]): 13/34
minimal required dosage to induce stable disease (A-498 xenografts; [2]): 40 mg/kg
treated SN12C xenograft mice showing phenotypic resistance (SN12C xenografts; 80 mg/kg, 3-weeks-on and 3-weeks-off): 33%
minimal required dosage to induce stable disease (SN12C xenografts; [2]): 80 mg/kg
pIC50 (RCC cell lines; read-out: IC50 on proliferation of RCC cell lines, similar under both conditions: normal culture/complete medium and ligand-dependent/PDGF-only): 5.00 to 5.40
pIC50 (RCC cell lines; read-out: IC50 on proliferation of RCC cells, complete medium): 5.00 to 5.40
pIC50 (RCC cell lines; read-out: IC50 on proliferation of RCC cells, ligand-dependent condition): 5.22 to 5.70
pIC50 (HUVEC and HLMVEC cells; read-out: IC50 on proliferation of endothelial cell lines): ~8.00
pIC50 (HUVEC and HLMVEC cells; read-out: IC50 on proliferation of endothelial cells): ~5.22

From patent US8133686B2 (Van Andel Research Institute, priority 2008, dated 2012)
